Measurements: patent US20220241311A1, “METHODS AND MATERIALS FOR TREATING GLYCOSYLATION DISORDERS” (priority 2018, published 2022)

Key:
[1] = Blood concentration of D-gal after oral dose; type: in vivo, human; settings: PGM1-CDG patients; 1-1.5 g/kg/day oral
Description: An oral dose of 0.3 g/kg D-gal supplement leads to a blood concentration of D-gal at 0.75 mM, 1.0 g/kg D-gal dose corresponds to 2.25 mM peak concentration of D-gal in blood, while an oral dose of 1.5 g/kg galactose supplement leads to a blood peak concentration of 3.5 mM (Tegtmeyer et al. 2014). The blood concentration of free D-galactose in un-supplemented individuals was below 0.01 mM.

[2] = system: skin fibroblasts of Patient 2; experiment: N- and O-linked glycan analysis by MALDI-TOF mass spectroscopy; type: cell-based, human
Description: Fibroblasts from Patient 2 were used for N- and O-linked glycan analysis with and without D-gal feeding in vitro. Upon reaching 100% confluence, the cells were washed twice with PBS and harvested using a cell scraper. The cells were then pelleted and washed with PBS by centrifugation. Fibroblast pellets were lysed in 200 μL PBS, and 200 μg protein from the cell lysate was denatured and precipitated with ˜2 Å volume of 100% propanol. N-linked and O-linked glycans were released from precipitated protein, and free oligosaccharides were purified from the supernatant. N-linked glycans were released from the cell pellets using the PNGase F kit from New England Biolabs (Ipswich, Mass., USA). O-linked glycans were released using β-elimination with sodium borohydride. The released N-linked glycans from cells or deprotonated total cell lysate were purified and desalted by solid phase extraction using a SepPak C18 and carbograph column. O-linked glycans from cells were purified and desalted using an AG 50W-X8 resin cation exchange column. N-linked glycans, O-linked glycans and oligosaccharides were permethylated with sodium hydroxide and iodomethane in dimethyl sulfoxide (DMSO). After permethylation, glycans were extracted with water/chloroform (2:1, vol/vol) in four steps and dried. Samples were then dissolved in 50% methanol, spotted with 11% 2,5-dihydroxylbenzoic acid matrix (1:1 vol/vol), and measured in triplicates and compared to two healthy controls. Measurements were performed by MALDI-TOF using the positive mode on Ultraflex MALDI-TOF/TOF system (BrunkerDaltonics, Billerica, Mass., USA) as described elsewhere (see, e.g., Xia et al., 2013 Anal Biochem 442:178-185).

PGM1-CDG patients = experiment: Oral D-gal supplementation: laboratory studies in blood (liver transaminases, coagulation, glycoproteins, CK, glucose); type: in vivo, human
Source text: The study design was an open-label prospective study. Patients with biochemically and genetically confirmed PGM1 deficiency were recruited into the study. Individuals with an existing diagnosis of aldolase B deficiency, galactosemia, hemolytic uremic syndrome, severe anemia, galactose intolerance, or intellectual disability were excluded from the study. Nine patients were enrolled in the study, five females and four males. Patient age ranged from 19 months to 21 years old at the time of enrollment (mean age 9.75 years). Informed written consent was obtained before the start of study. A primary end-point was to assess the safety and tolerability of oral D-gal supplementation and to identify physiological biomarkers that are responsive to D-gal supplementation in a heterogeneous genetic background. The effect of D-gal in PGM1-CDG patients was also monitored via glycomics. Secondary endpoints were the restoration of the plasma glycan subfractions, monitored via glycomics (Table 3), and normalization of antithrombin III activity and serum alanine transaminase (ALT) levels.
The D-gal intake was increased over the study period in increments as follows: weeks 0-6 (T0-T1), 0.5 g/kg per day; weeks 6-12 (T1-T2), 1.0 g/kg per day; weeks 12-18 (T2-T3), 1.5 g/kg per day (FIG. 2). The intake was increased gradually to reach the recommended maximum daily dose with minimal gastrointestinal irritation (diarrhea, stomachache, nausea) and metabolic side effects (presence of urinary galactitol).
Dietary assessment, clinical evaluation (general physical examination and anthropometric measurements), and laboratory and biochemical studies were completed every 6 weeks (T0, T1, T2 and T3).
Liver transaminases (aspartate transaminase (AST) and alanine transaminase (ALT)), creatine kinase (CK), commonly assayed glycoproteins (thyroid stimulating hormone (TSH), thyroxine-binding globulin (TBG), and insulin-like growth factor binding protein 3 (IGF3BP)), and coagulation parameters (Factor IX, Factor XI, activated […] (aPTT), and anti-thrombin III (ATIII)), were measured in blood. Patent 1 had additional Factor XI, and XIII measurements. Serum galactose-1-phosphate and urine galactitol were measured to monitor safety and tolerability of galactose supplementation. Biochemical studies to evaluate changes in glycosylation included isoelectric focusing (IEF) of serum transferrin and glycomic analysis in blood by mass spectrometry.
Patient 1 remained on D-gal 1 g/kg/day after the study period as D-gal is the only currently available compassionate treatment for PGM1-CDG. The parameters monitored during the study period, including additional coagulation factor measurements, have been followed as part of routine care (Table 4).
Quantitative data are presented as the mean±standard error of the mean.

[3] = 4 days of 0.75 mM galactose following 18 hours of serum starvation
[4] = patient 1, 1 g/kg/day for additional 12 months

O=C[C@H](O)[C@@H](O)[C@@H](O)[C@H](O)CO [D-gal, D-galactose]
Peak concentration of galactose in blood [1]: 0.75 to 2 mM
N-glycan m/z 2070.06 Hexose5HexNAc4, Level [2, 3]: Normal
N-glycan m/z 2431 Sial1Hexose5HexNAc4, Level [2, 3]: Normal
N-glycan m/z 2605 + 2431 monosialo biantennary glycans, Level [2, 3]: High
N-glycan m/z 2605 Fuc1Sial1Hexose5HexNAc4, Level [2, 3]: High
O-glycan m/z 1256 core1, disialyl T, Level [2, 3]: Low
O-glycan m/z 1706 core2, disalyl, sial2hexose2hexNAc2, Level [2, 3]: High
O-glycan m/z 1706 core2, disalyl, sial2hexose2hexNAc2, % Total glycan ([2]; 4 days of 0.75 mM galactose following 18 hours of serum starvation, control range 14%): 35.12%
O-glycan m/z 1256 core1, disialyl T, % Total glycan ([2]; 4 days of 0.75 mM galactose following 18 hours of serum starvation, control range 55.12%): 11.22%
N-glycan m/z 2070.06 Hexose5HexNAc4, % Total glycan ([2]; 4 days of 0.75 mM galactose following 18 hours of serum starvation, control range <3.88%): 3.65%
N-glycan m/z 2431 Sial1Hexose5HexNAc4, % Total glycan ([2]; 4 days of 0.75 mM galactose following 18 hours of serum starvation, control range <3.90%): 2.23%
N-glycan m/z 2605 Fuc1Sial1Hexose5HexNAc4, % Total glycan ([2]; 4 days of 0.75 mM galactose following 18 hours of serum starvation, control range <4.46%): 6.15%
N-glycan m/z 2605 + 2431 monosialo biantennary glycans, % Total glycan ([2]; 4 days of 0.75 mM galactose following 18 hours of serum starvation, control range <8.36%): 8.38%
Monosialo core 1 at m/z 895 ([2]; both in control and PGM1-CDG cells): increased
Sialylation of N-glycans ([2]; in vitro galactose treatment of fibroblasts): improved sialylation
GlcNAcylation in N-linked or O-linked protein glycosylation profiles ([2]; patient 2 fibroblasts after serum starvation): No change
ALT levels (PGM1-CDG patients; T0 to T2, p=0.05): significantly decreased
ATIII, T0 vs T3 (PGM1-CDG patients; all patient data, P=0.020): significant difference
AST (PGM1-CDG patients; all patients except patient 2, 18 weeks): did not normalize at 18 weeks, it fell below baseline
AST (PGM1-CDG patients; all patients, 6 weeks): moderately declined
AST (PGM1-CDG patients; all patients, 12 weeks vs baseline): declined by 23% to more than 10-fold
Creatine kinase and glucose levels (PGM1-CDG patients; during the study): fluctuated and remained abnormal
Frequency of hypoglycemic episodes (PGM1-CDG patients; during the study): decreased significantly in four patients
Laboratory parameters at 1.5 g/kg/day compared to 1 g/kg/day (PGM1-CDG patients; last 6 weeks of the trial): did not lead to significant improvement
ALT, aPTT, ATIII, TSH, TBG, long-term (PGM1-CDG patients; [4]): remained stable
Factor XI and Factor XIII, long-term (PGM1-CDG patients; [4]): returned to before-treatment levels
ATIII (PGM1-CDG patients; patient 1, 18 weeks): remained within normal range
Factor XI (PGM1-CDG patients; patient 1, after 12-18 weeks): normalized
Factor XIII (PGM1-CDG patients; patient 1, after 12-18 weeks): normalized
Creatine kinase decrease, long-term (PGM1-CDG patients; patient 1, over the course of one year): ~80%
TSH (PGM1-CDG patients; patient 2 (abnormal baseline)): normalized at 18 weeks
ATIII vs baseline (PGM1-CDG patients; patient 2, 18 weeks): twofold higher than baseline
AST (PGM1-CDG patients; patient 2, 18 weeks, after discontinuing galactose for 2 weeks): spiked upwards, almost reaching baseline
ALT, excess over baseline (PGM1-CDG patients; patient 2, 18 weeks, intercurrent illness): 18%
ATIII drop (PGM1-CDG patients; patient 2, following illness and cessation of galactose intake): 30%
IGFBP-3 (PGM1-CDG patients; patient 3): normalized at 18 weeks
TSH (PGM1-CDG patients; patient 5 (abnormal baseline)): normalized at 6 weeks and remained stable at 12 and 18 weeks
ALT decrease (PGM1-CDG patients; patient 5, 6 weeks): 43%
ATIII (PGM1-CDG patients; patient 5, 6 weeks): transiently normalized
ALT above the upper limit of normal (PGM1-CDG patients; patient 5, 12 and 18 weeks): 3%
ATIII below the lower limit of normal (PGM1-CDG patients; patient 5, 12 and 18 weeks): 8%
IGFBP-3 (PGM1-CDG patients; patient 6, 12 weeks): slight improvement
IGFBP-3 below the lower limit of normal (PGM1-CDG patients; patient 6, 12 weeks): about 50%
TBG below the lower limit of normal (PGM1-CDG patients; patient 6, 12 weeks): 8%
TBG improvement (PGM1-CDG patients; patient 6, 12 weeks): 30%
TBG higher than the upper limit of normal (PGM1-CDG patients; patient 9, 18 weeks): 80%
TBG decline (PGM1-CDG patients; patient 9, 18 weeks, baseline twofold the upper limit of normal): 12%
ALT (PGM1-CDG patients; patients 1, 2, 4, 7 (abnormal baseline)): normalized at 6 or 12 weeks
Factor IX levels (PGM1-CDG patients; patients 1, 2, 5, 6, 9, 18 weeks): remained normal
IGFBP-3 (PGM1-CDG patients; patients 1 and 2): normalized at 12 weeks and remained stable at 18 weeks
TBG (PGM1-CDG patients; patients 1 and 2): normalized at 6 weeks and remained stable at 12 and 18 weeks
ATIII (PGM1-CDG patients; patients 1 and 2, 12 weeks): normalized
aPTT (PGM1-CDG patients; patients 1 and 7 (abnormal baseline)): normalized at 6 and 12 weeks, respectively
aPTT (PGM1-CDG patients; patients 2, 3, 5, 6 (normal baseline)): remained stable
